Assay [1] deals with T1, Peroxisome proliferator-activated receptor gamma (Homo sapiens, UniProt P37231).
T1 sequence (P37231 whole entry): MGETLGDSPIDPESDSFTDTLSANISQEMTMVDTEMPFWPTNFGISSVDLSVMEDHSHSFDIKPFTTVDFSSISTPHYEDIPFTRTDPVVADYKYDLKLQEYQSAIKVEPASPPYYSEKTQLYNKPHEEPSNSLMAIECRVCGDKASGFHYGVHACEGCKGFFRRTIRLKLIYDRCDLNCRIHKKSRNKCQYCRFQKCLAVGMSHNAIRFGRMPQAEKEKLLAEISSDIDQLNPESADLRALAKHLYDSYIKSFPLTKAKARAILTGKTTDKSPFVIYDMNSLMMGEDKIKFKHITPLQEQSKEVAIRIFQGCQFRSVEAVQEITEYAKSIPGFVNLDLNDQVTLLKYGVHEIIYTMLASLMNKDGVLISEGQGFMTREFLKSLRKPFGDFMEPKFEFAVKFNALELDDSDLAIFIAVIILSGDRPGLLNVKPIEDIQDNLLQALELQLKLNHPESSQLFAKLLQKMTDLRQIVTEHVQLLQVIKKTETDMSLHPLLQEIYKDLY
The assay can be described thus: Inverse agonist activity at GST tagged human PPARgamma LBD (231 to 505 residues) expressed in Escherichia coli BL21(DE3) assessed as recruitment of fluorescein labeled corepressor NCOR2 Smrt-ID2 peptide to PPARgamma LBD incubated for 24 hrs by LanthaScreen TR-FRET assay. A general note: Time-resolved FRET reads energy transfer from a long-lived donor to a nearby acceptor.

Assay [2] deals with T1, Peroxisome proliferator-activated receptor gamma. Put plainly: Inverse agonist activity at human PPARgamma in human RT112/84 transfected with NLuc-fused FABP4 assessed as reduction in PPARgamma transactivation incubated for 6 to 18 hrs by Nano-Glo luciferase assay. Type of assay: cell-based.
The nature of assay [3]: Antiproliferative activity against human UM-UC-9 assessed as inhibition of cell proliferation measured after 7 days by IncuCyte live-cell imaging assay. To be noted: UM-UC-9, 168 h.
The nature of assay [4]: Antiproliferative activity against human UM-UC-9 assessed as inhibition of cell proliferation by measuring maximum efficacy after 7 days by IncuCyte live-cell imaging assay. Type of assay: functional. To be noted: UM-UC-9, 168 h, time 7 day.

Each structure is given as a SMILES string. Bounds are passed on as bounds.

The values that follow come from ChEMBL document CHEMBL5236643, “Discovery and characterization of orally bioavailable 4-chloro-6-fluoroisophthalamides as covalent PPARG inverse-agonists” (Bioorg Med Chem, 2023).

What is called EC50 is the concentration needed to bring the measured effect to its halfway point. One may read the IC50 as the concentration needed to halve the response being measured. In the case of `O=C(NCc1ccccc1)c1cc(C(=O)Nc2ccccc2)c(Cl)c(C(F)(F)F)c1`, the EC50 in assay [1] turned out to be 2200 nM. Also, the IC50 in assay [2] is > 5000 nM.
On to `Cc1cccnc1NC(=O)c1cc(C(=O)NCc2ccc(F)c(F)c2)c(F)cc1Cl`, for which the IC50 in assay [3] stood at 695 nM; in assay [2], 91 nM. In addition, in assay [1], the EC50 came out at 500 nM. In addition, the Emax in assay [4] is 108%.
As for `Cc1ccccc1NC(=O)c1cc(C(=O)NCc2ccccc2)c(F)cc1Cl`, the values for the IC50 in assay [3] and in assay [2] were 165 nM and 38 nM, respectively. The EC50 in assay [1] turned out to be 69 nM. Besides, the Emax in assay [4] came out at 26%.
As for `O=C(NCc1ccc(F)c(F)c1)c1cc(C(=O)Nc2ccccn2)c(Cl)cc1F`, the EC50 in assay [1] came out at 110 nM. In assay [4], the Emax is 100%.
As for `Cc1cccc(CNC(=O)c2ccc(Cl)c(C(=O)Nc3ccccc3)c2)c1`, in assay [1], the EC50 came to 3000 nM. For the same molecule, the IC50 in assay [2] was > 5000 nM.
The like results for `Cc1ccccc1CNC(=O)c1ccc(Cl)c(C(=O)Nc2ccccc2)c1` were, in that order, 1770 nM and 1040 nM.
Take `COCCOCc1cc(F)ccc1CNC(=O)c1cc(C(=O)Nc2ccc(C(F)(F)F)cc2C)c(Cl)cc1F`: the EC50 in assay [1] is 31 nM.
Take `Cc1cc(C(=O)NCc2ccccc2)cc(C(=O)Nc2ccccc2)c1Cl`: in assay [1], the EC50 is > 33000 nM. Further, the IC50 in assay [2] is > 5000 nM.
